Measured values taken from paper PMC4456360, “A Recombinant Fungal Lectin for Labeling Truncated Glycans on Human Cancer Cells” (PLoS ONE, 2015).
pKd: −log10 of the molar value. Several values for one entry are separate records, joined by “and”; a condition that tells them apart may be missing. Identical values can stand only once. Marks after values point to notes of the source that are not given here.

Experiments:
rPVL [1] = target: T1, rPVL (Lacrymaria velutina (Psathyrella velutina), UniProt Q309D1); assay: Surface plasmon resonance, oligosaccharides injected over rPVL-coated CM5 chip; type: binding; settings: 25°C, rPVL immobilized on chip; for pKd: read-out: SPR Kd
T1 sequence (Q309D1 1-395): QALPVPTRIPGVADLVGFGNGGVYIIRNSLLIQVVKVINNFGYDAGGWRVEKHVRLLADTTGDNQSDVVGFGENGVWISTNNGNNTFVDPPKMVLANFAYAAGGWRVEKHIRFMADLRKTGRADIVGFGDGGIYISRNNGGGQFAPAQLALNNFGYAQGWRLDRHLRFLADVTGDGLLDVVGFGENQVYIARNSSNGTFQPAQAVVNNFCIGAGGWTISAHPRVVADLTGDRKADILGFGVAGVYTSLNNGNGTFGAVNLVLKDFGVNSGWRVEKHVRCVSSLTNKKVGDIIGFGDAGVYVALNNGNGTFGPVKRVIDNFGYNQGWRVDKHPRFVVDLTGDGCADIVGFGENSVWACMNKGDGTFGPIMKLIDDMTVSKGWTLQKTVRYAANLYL
Description: All SPR experiments were performed on a Biacore X100 instrument (GE Healthcare) at 25°C in HBS (10 mM Hepes/NaOH, pH 7.5, 150 mM NaCl, 0.05% Tween 20) supplemented with 100 μM of CaCl2 at a flow rate of 30 μl min^-1. Binding was measured as resonance units over time after blank subtraction, and data were then evaluated by using the Biacore X100 evaluation software, version 2.0. Dissociation constants were determined by plotting response at equilibrium (Req, 10 s before the end of injection) against analyte concentration. For protein coated chip, 3500 resonance units of rPVL (100 μg ml^-1, 10 mM acetate buffer pH 6.2) have been immobilized on flow channel 2 of a research grade CM5 chip using standard amine coupling procedures. Flow channel 1 has been activated/deactivated. Experiments consist of injection (association 360 s, dissociation 400 s) of various concentrations of oligosaccharides (2 fold cascade dilutions, from 0 to 10 μM) on both channels.

rPVL [2] = target: T1, rPVL; assay: Titration microcalorimetry (ITC), rPVL in solution; type: binding; settings: for ITC -∆H / ITC T∆S / ITC n (number of binding sites per monomer) / pKd: 25°C; for pKd: rPVL in solution; for ITC n: stoichiometry value fixed during fitting procedure
Description: Recombinant lyophilized rPVL was dissolved in buffer (20 mM Tris/HCl, pH 7.5, NaCl 150 mM, 100 μM CaCl2) and degassed. The protein concentration was checked by measuring A280 by using a theoretical molar extinction coefficient of 65,890 M^-1 cm^-1. Carbohydrate ligands were dissolved in the same buffer, degassed, and loaded in the injection syringe. ITC was performed with a ITC200 microcalorimeter (GE Healthcare). The rPVL solution was placed in a 200 μl sample cell at 25°C. Titration was performed with 20 injections of 2 μl carbohydrate ligands every 120 s. The experimental data were fitted to a theoretical titration curve using Origin software supplied by GE Healthcare, with ΔH (enthalpy change), Ka (association constant) and n (number of binding sites per monomer) as adjustable parameters. Free energy change (ΔG) and entropy contributions (TΔS) were derived from the equation ΔG = ΔH – TΔS = —RT ln Ka (with T as the absolute temperature and R = 8.314 J mol^-1 K^-1). Two independent titrations were performed for each tested ligand.

rPVL [3] = target: T1, rPVL; assay: Glycan array (CFG Mammalian Printed Array version 5.1); type: binding; settings: Alexa Fluor 488 labeled rPVL
Excerpt: Purified rPVL were labeled with Alexa Fluor 488 (Invitrogen) according to the manufacturer’s instructions and repurified on a D-Salt polyacrylamide desalting column (Pierce). Alexa-labeled rPVL was used for glycan array screening with the standard procedure of the Protein-Glycan Interaction Core (H) of the Consortium for Functional Glycomics.

native PVL = target: native PVL; design: method as in PMID 16497330; settings: ITC, native PVL isolated from mushroom; cited from earlier work
rPVL [4] = target: T1, rPVL; assay: Thermal shift analysis of rPVL with glycan ligands; type: binding
Description: Thermal shift assays were performed using a Mini Opticon, Real Time PCR machine (Bio-Rad Laboratories) with 0.5 mg ml^-1 of protein diluted in 100 mM NaCl, 20 mM Tris pH 7.5, 100 μM CaCl2, with or without oligosaccharide in a total reaction volume of 25 μl. SYPRO Orange (Molecular Probes, CA) was used as a fluorescent probe detected at 530 nm. The temperature was raised using 1°C/minute steps from 25°C to 100°C and fluorescence readings were taken at each interval. […] A minimum of two independent measurements were performed for each condition

Molecule	pKd (rPVL [1])	ITC -∆H (rPVL [2]) [kJ/mol]	ITC T∆S (rPVL [2]) [kJ/mol]	pKd (rPVL [2])	further results
CC(=O)N[C@@H]1[C@@H](O)[C@H](O[C@@H]2O[C@H](CO)[C@@H](O[C@@H]3O[C@H](CO[C@H]4O[C@H](CO)[C@@H](O)[C@H](O)[C@@H]4O[C@@H]4O[C@H](CO)[C@@H](O)[C@H](O)[C@H]4NC(C)=O)[C@@H](O)[C@H](O[C@H]4O[C@H](CO)[C@@H](O)[C@H](O)[C@@H]4O[C@@H]4O[C@H](CO)[C@@H](O)[C@H](O)[C@H]4NC(C)=O)[C@@H]3O)[C@H](O)[C@H]2NC(C)=O)[C@@H](CO)O[C@H]1N=[N+]=[N-] [Biantennary N-glycan (2)]	3.75	13.7	11.8	4.47 and 4.46	ITC n (number of binding sites per monomer) (rPVL [2]): 1.9 ± 0.6; ITC n (number of binding sites per monomer) (rPVL [2]; listed as biantennary heptasaccharide): two
CC(=O)N[C@H]1[C@H](O[C@H]2[C@@H](O)[C@@H](CO)OC(O)[C@@H]2NC(C)=O)O[C@H](CO)[C@H](O)[C@@H]1O (some centres unmarked) [GalNAcβ1-3GalNAc]					binding of rPVL on glycan array (in words) (rPVL [3]): minor intensity
CC(=O)N[C@H]1[C@H](O[C@H]2[C@H](O)[C@@H](NC(C)=O)[C@H](O[C@H]3[C@H](O)[C@@H](NC(C)=O)C(O)O[C@@H]3CO)O[C@@H]2CO)O[C@H](CO)[C@@H](O[C@@H]2O[C@H](CO)[C@@H](O[C@@H]3O[C@H](CO)[C@@H](O)[C@H](O)[C@H]3NC(C)=O)[C@H](O)[C@H]2NC(C)=O)[C@@H]1O (stereo partly drawn) [GlcNAc(β1-4GlcNAc)4, GlcNAcβ1-4GlcNAcβ1-4GlcNAcβ1-4GlcNAcβ1-4GlcNAc]	3.45				
CC(=O)N[C@@H]1[C@@H](O)[C@H](O)[C@@H](CO)O[C@H]1O [GlcNAc, N-acetylglucosamine]	3.88	41.2	-18.0	3.91	ITC n (rPVL [2]): 5.0 ^b; pKd (native PVL): ~3.70
CC(=O)N[C@H]1[C@H](O[C@H]2[C@@H](O)[C@@H](CO)OC(O)[C@@H]2O)O[C@H](CO)[C@@H](O)[C@@H]1O (some centres unmarked) [GlcNAcβ1-3Gal]	3.99	42.1	-19.5	3.96	Tm of rPVL in the presence of ligand (rPVL [4]): 60 °C
CC(=O)N[C@H]1[C@H](O[C@H]2[C@@H](O)[C@@H](CO)O[C@@H](O[C@H]3[C@H](O)[C@@H](O)C(O)O[C@@H]3CO)[C@@H]2O)O[C@H](CO)[C@@H](O)[C@@H]1O (some centres unmarked) [GlcNAcβ1-3Galβ1-4Glc (LNT2), GlcNAcβ1-3Galβ1-4Glc]	4.15	41.7	-19.1	3.97	pKd (rPVL [1]; listed as lacto-N-triose): ~4.15; ITC n (number of binding sites per monomer) (rPVL [2]): 5.0 ± 0.2
CC(=O)N[C@H]1[C@H](O[C@H]2[C@H](O)[C@@H](NC(C)=O)C(O)O[C@@H]2CO)O[C@H](CO)[C@@H](O)[C@@H]1O (some centres unmarked) [GlcNAcβ1-4GlcNAc]	3.69	36.9	-14.6	3.91	ITC n (rPVL [2]): 5.0 ^b; Tm of rPVL in the presence of ligand (rPVL [4]): 60 °C; binding of rPVL on glycan array (in words) (rPVL [3]): only weakly
O=C[C@H](O)[C@@H](O)[C@@H](O)[C@H](O)CO [galactose]					stabilization of rPVL by carbohydrate (in words) (rPVL [4]): non-binding
OC[C@H]1O[C@@](CO)(O[C@H]2O[C@H](CO)[C@@H](O)[C@H](O)[C@H]2O)[C@@H](O)[C@@H]1O [sucrose]					stabilization of rPVL by carbohydrate (in words) (rPVL [4]): non-binding
Galβ1-3GlcNAcβ1-3Galβ1-4Glc [Galβ1-3GlcNAcβ1-3Galβ1-4Glc (LNT)]					SPR Kd (rPVL [1]): No binding
